Measurements: patent publication US20260306421A1, “SYSTEMS AND METHODS FOR TRANSDERMAN PATCH DELIVERY” (VITAMAX PATCH WHOLESALER LLC, priority 2022, published 2026)

Columns and labels:
[1] = Franz cell porcine skin permeation and deposition of iron from solutions; assay type: in vitro ADME; settings: for total delivered dose: PG solution; for permeation and deposition in the skin: solutions
Protocol: The permeation of the iron complexes from the formulations into and across porcine skin mounted on Franz cells with a receiver fluid was tested (FIG. 4). This was based on the principles of the FDA, SUPAC-SS guidelines. The developed colorimetric assay method was used for iron quantification.
(§1) On the day of the experiment, the skin was defrosted. For the full thickness studies, the subcutaneous fat removed (2.5 mm thick) and for the dermatomes skin studies the tissued was dermatomed to a 1 mm thickness. The tissue was cut into the appropriate size sections (2.19±0.21 cm^2) and mounted between donor and receiver compartments of Franz diffusion cells with the SC facing the donor compartment. Each cell was sealed using parafilm and 12 mm magnetic stir bars were placed into the receiver compartment. The receiver compartment was filled with the desired receiver solution and the Franz cells were placed in a stirring water bath at 37° C. Cells were allowed to equilibrate for 30 min after which the receiver fluid using was mixed using a syringe and the “zero hour” sample was withdrawn from the arm and compensate with the same volume of fresh pre-warmed solution. Following zero-hour sampling, the donor solution was placed in the donor compartment and covered with parafilm. Samples were withdrawn and compensated with fresh receiver solution at set time intervals for a 24 h duration. The iron in each sample was quantified using the method specified in Section 2.2.2.1. […] There was no matrix interference noted in the assay. […] For iron maltol a 80:20 PG:water receiver was used along with a complementary calibration for iron assay (iron chloride in PG:water). The donor solution for the iron maltol made at pH 1.6 was 200 μL of 100 mg/mL complex in Transcutul®, for iron maltol made at pH 4 the donor solution was 200 μL of 23 mg/mL complex in PG and for iron maltol made at pH 4 the donor solution was 150 μL of 16 mg/mL complex in 7.5:1.5:1:1 water:PG:dimethicone:ethanol.
Once the permeation studies were completed the donor solutions were collected into bottles containing the extraction solution. This was followed by skin surface cleaning using four cotton buds, the first two were wetted by the extraction fluid and the second two were used dry. Then two tape striping procedures were performed using 2 tapes to remove any iron on the skin surface with the tape being added to the donor solution and cotton buds in the donor recover vial. For the full skin thickness skin, the Stratum corneum, the dermal and the epidermal layers were isolated in the same way as the recovery method (Section 2.3.2.1). Extraction fluid (50:50 PBS:ethanol) was then added to the tissues, 4 mL to the Stratum corneum, and 2 mL for each of the epidermis and dermis. For the dermatomed skin the whole skin section was chopped up and placed in a 2 mL extraction fluid (ethanol).
The Stratum corneum samples were placed on vibrating plate for a minimum of 2 h to extract the iron and then vortexed prior assay. The epidermis, dermis or dermatomed samples however were incubated with the extraction fluid for 1 h after which were transferred to Eppendorf tubes, one stainless steel 5 mm bead was added and the samples were loaded into the TissuLyser II (Qiagen, Germany) for 30-15 min at 30 Hz. The samples were then centrifuged (5 min at 13,000 rpm) and supernatant assayed.

[2] = Solubility of iron chloride hexahydrate and iron complexes (visual / assayed); assay type: physicochemical
Protocol: Due to the high number of test samples (6 complexes plus the starting material, iron chloride hexahydrate) a visual solubility screen was used to screen the solubility in a range of solvents. […] Quantitative determination was performed by either incubating the complex in excess in the solvent using a shaking 37° C. water bath for 48 h or sonicating it for 2 hours at 40° C. or leaving overnight on a 50° C. hot plate. Once incubation period was completed, the exact solubility in a particular solvent was assayed (using the iron assay) after centrifugation (i.e. assay iron content in the supernatant using the Ferrozine® assay).

[3] = Visual skin damage / necrosis after iron permeation study; settings: after 24 h permeation study, porcine skin
Source text: as §1

[4] = Iron complex adhesive compatibility and loading screen; assay type: physicochemical
Protocol: Pre-formulation studies were performed to determine the compatibility of the iron complexes with a range of transdermal patch adhesives (Table 15).
The compatibility of the complexes with the patch adhesives was assessed by mixing and visually checking the clarity of the mixture.
In the adhesives that were computable with the iron complexes the maximum drug loading of the complexes in the adhesive following solvent evaporation was determined. This was achieved by mixing the drug, adhesive and co-solvents until a clear solution was obtained at different drug:adhesive ratios and placing few drops of the mixture onto the patch backing sheet, leaving it to dry for 3-4 h, and examining the formed film on the surface of the backings for evidence of drug crystals.
Following complete drying of the solvents, the adhesive layer was covered by a release liner, compressed, and then cut using 34 mm circular manual die cutter (FIG. 23).

[5] = PG, 370 mg elemental iron dosed, 2 cm^2, 24 h

With O.O.O.O.O.O.[Cl-].[Cl-].[Cl-].[Fe+3] [Iron chloride hexahydrate, reference compound] the “elemental iron permeated the skin” value [1, 5] was 180 mg, the “elemental iron permeated, percent of dose” value [1, 5] was 48% and the “dose above the desired target (4.6 mg)” value ([1]; PG, 24 h) was 40 times. For the same molecule, the “Solubility, equivalent elemental iron” value ([2]; PG) was 370 mg/mL, the Solubility ([2]; PG, as iron chloride hexahydrate) was 1400 mg/mL and the “skin damage / necrosis” value [3] was “necrosis of the skin”.

With CCc1occc(=O)c1[O-].CCc1occc(=O)c1[O-].CCc1occc(=O)c1[O-].[Fe+3] [Iron ethyl maltol, iron ethyl maltol] the total delivered dose ([1]; 24 h) was 12 μg/cm^2, the “Solubility of complex (visual)” value ([2]; Chloroform) was ≥20 mg/mL Iron ethyl maltol* and the “Solubility of complex (visual)” value ([2]; Ethyl acetate) was <8 mg/mL Iron ethyl maltol*. For the same molecule, the “Solubility of complex (visual)” value ([2]; Glycerol) was <8 mg/mL Iron ethyl maltol*, the “Solubility of complex (visual)” value ([2]; Hexane) was <8 mg/mL Iron ethyl maltol* and the “Solubility of complex (visual)” value ([2]; Liquid Paraffin) was <8 mg/mL Iron ethyl maltol*. For the same molecule, the “Solubility of complex (visual)” value ([2]; Methanol) was ≥20 mg/mL Iron ethyl maltol*, the “Solubility of complex (visual)” value ([2]; Miglyol) was <8 mg/mL Iron ethyl maltol* and the “Solubility of complex (visual)” value ([2]; Oleic acid) was <8 mg/mL Iron ethyl maltol*. For the same molecule, the “Solubility of complex (visual)” value ([2]; Transcutul) was <8 mg/mL Iron ethyl maltol*, the “Solubility of complex (visual)” value ([2]; Triaceten) was <8 mg/mL Iron ethyl maltol* and the “skin damage / necrosis” value [3] was “did not cause any visible skin damage”. For the same molecule, the compatibility with adhesives [4] was “only compatible with DURO-TAK 9301”, the “(maximum) complex loading achieved in adhesive” value ([4]; methanol stock solution 10 mg/mL) was 4% and the “complex loading achieved in adhesive patch” value ([4]; methanol stock solution 18 mg/mL) was 8.5%.

With Cc1occc(=O)c1[O-].Cc1occc(=O)c1[O-].Cc1occc(=O)c1[O-].[Fe+3] [Iron maltol made at pH 1.6, iron maltol] the “permeation and deposition in the skin” value ([1]; 24 h) was “permeated and deposited in the skin”, the “Solubility of complex (visual)” value ([2]; PEG400) was <6 mg/mg/mL and the “Solubility of complex (visual)” value ([2]; PG) was <6 mg/mg/mL. For the same molecule, the Solubility of complex ([2]; Transcutul) was 100 mg/mg/mL, the “Solubility, equivalent elemental iron” value ([2]; Transcutul) was “to 13 mg/ mg/mL” and the “skin damage / necrosis” value [3] was “caused skin necrosis”.

In the case of Cc1occc(=O)c1[O-].Cc1occc(=O)c1[O-].Cc1occc(=O)c1[O-].[Fe+3] [Iron maltol made at pH 4, iron maltol], the total delivered dose ([1]; 24 h) is reported as 65 μg/cm^2, the “permeation and deposition in the skin” value ([1]; 24 h) is reported as “permeated and deposited in the skin” and the Solubility of complex ([2]; PEG400) is reported as 20 mg/mg/mL. The “Solubility, equivalent elemental iron” value ([2]; PEG400) was “to 2.7 mg/ mg/mL”, the Solubility of complex ([2]; PG) was 17 ± 5 mg/mg/mL and the “Solubility, equivalent elemental iron” value ([2]; PG) was “to 2.3 ± 0.6 mg/mL”. For the same molecule, the Solubility ([2]; PG and PEG400 (conclusions)) was 18 mg/mL, the “Solubility of complex (visual)” value ([2]; Transcutul) was <6 mg/mL and the “skin damage / necrosis” value [3] was “without inducing skin necrosis”.
